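Tested at 5 concentrations; 48 h exposure; 96-well plates; endpoints linearly interpolated, else capped at highest concentration. GI50 is the concentration that inhibits growth by half.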 Active and inactive are the calls of the source. No stated cut-off is given here; in the data, active = GI50 up to about 1.1 µM and inactive = higher.
How the values were obtained:
Assay in all cases: NCI tumour cell line growth inhibition, 48 h
[1] = system: SF-539
[2] = system: DMS-273
[3] = system: RXF 393
[4] = system: HOP-92
[5] = system: SK-MEL-5
[6] = system: SR
[7] = system: SNB-75
[8] = system: DLD-1
[9] = system: SK-MEL-28
[10] = system: HL-60
[11] = system: TK-10
[12] = system: U-251
[13] = system: SK-MEL-2
[14] = system: Malme-3M
[15] = system: HCT-15
[16] = system: HOP-18
[17] = system: HCC 2998
[18] = system: HT-29
[19] = system: OVCAR-8
[20] = system: M14
[21] = system: KM12
[22] = system: DMS-114
[23] = system: RXF 631
[24] = system: UACC-257
[25] = system: SF-295
[26] = system: A549
[27] = system: SK-OV-3
[28] = system: K562
[29] = system: SNB-78
[30] = system: CAKI-1
[31] = system: HCT-116
[32] = system: ACHN
[33] = system: OVCAR-4
[34] = system: A498
[35] = system: NCI-H522
[36] = system: MOLT-4
[37] = system: SNB-19
[38] = system: NCI-H226
[39] = system: COLO 205
[40] = system: SF-268
[41] = system: CCRF-CEM
[42] = system: 786-0
[43] = system: XF498
[44] = system: OVCAR-3
[45] = system: HOP-62
[46] = system: M19-MEL
[47] = system: SW-620
[48] = system: LXFL 529
[49] = system: IGROV-1
[50] = system: SN12C
[51] = system: EKVX
[52] = system: UACC-62
[53] = system: NCI-H23
[54] = system: LOX IMVI
[55] = system: UO-31
[56] = system: NCI-H460
[57] = system: RPMI-8226
[58] = system: OVCAR-5
[59] = system: KM-20L2

## CCN(CC)c1ccc(/N=N/c2ccc([N+](=O)[O-])cc2OC(=O)/C=C/c2ccccc2)c(OC(=O)/C=C/c2ccccc2)c1
[1]
  GI50: 2.89 µM (inactive)
[2]
  GI50: 5.5 µM (inactive)
[3]
  GI50: 42.9 µM (inactive)
[4]
  GI50: > 100 µM (inactive)
[5]
  GI50: 12.2 µM (inactive)
[6]
  GI50: 4.27 µM (inactive)
[7]
  GI50: 8.04 µM (inactive)
[8]
  GI50: 4.18 µM (inactive)
[9]
  GI50: 7.03 µM (inactive)
[10]
  GI50: 2.11 µM (inactive)
[11]
  GI50: 27.3 µM (inactive)
[12]
  GI50: 5.43 µM (inactive)
[13]
  GI50: > 95.3 µM (inactive)
[14]
  GI50: 6.44 µM (inactive)
[15]
  GI50: 19.5 µM
[16]
  GI50: 1.7 µM (inactive)
[17]
  GI50: 12.7 µM (inactive)
[18]
  GI50: > 100 µM (inactive)
[19]
  GI50: 6.27 µM (inactive)
[20]
  GI50: 12.7 µM (inactive)
[21]
  GI50: 3.83 µM (inactive)
[22]
  GI50: 3.49 µM (inactive)
[23]
  GI50: > 100 µM (inactive)
[24]
  GI50: 2.23 µM (inactive)
[25]
  GI50: 4.6 µM (inactive)
[26]
  GI50: 8.2 µM (inactive)
[27]
  GI50: 4.16 µM (inactive)
[28]
  GI50: > 68.9 µM (inactive)
[29]
  GI50: > 100 µM (inactive)
[30]
  GI50: 84.1 µM (inactive)
[31]
  GI50: 3.55 µM (inactive)
[32]
  GI50: 2.1 µM (inactive)
[33]
  GI50: 21 µM (inactive)
[34]
  GI50: > 26.9 µM (inactive)
[35]
  GI50: 23.2 µM (inactive)
[36]
  GI50: 5.16 µM (inactive)
[37]
  GI50: > 24.2 µM (inactive)
[38]
  GI50: 1.44 µM (inactive)
[39]
  GI50: > 100 µM (inactive)
[40]
  GI50: 1.93 µM (inactive)
[41]
  GI50: 3.02 µM (inactive)
[42]
  GI50: 7.43 µM (inactive)
[43]
  GI50: 6.82 µM (inactive)
[44]
  GI50: 3.18 µM (inactive)
[45]
  GI50: 2.12 µM (inactive)
[46]
  GI50: 5 µM (inactive)
[47]
  GI50: 7.57 µM (inactive)
[48]
  GI50: 21.5 µM (inactive)
[49]
  GI50: 18.5 µM (inactive)
[50]
  GI50: 20.6 µM (inactive)
[51]
  GI50: 5.58 µM (inactive)
[52]
  GI50: 8.11 µM (inactive)
[53]
  GI50: 12.2 µM (inactive)
[54]
  GI50: 4.74 µM (inactive)
[55]
  GI50: 4.45 µM (inactive)
[56]
  GI50: 0.7 µM (active)

## Nc1ncnc2c1ncn2C1(CO)OC(CO)C(O)C1O (stereo not given)
[2]
  GI50: > 100 µM (inactive)
[3]
  GI50: > 100 µM (inactive)
[4]
  GI50: > 100 µM (inactive)
[5]
  GI50: > 100 µM (inactive)
[6]
  GI50: > 100 µM (inactive)
[7]
  GI50: > 100 µM (inactive)
[8]
  GI50: > 100 µM (inactive)
[9]
  GI50: > 100 µM (inactive)
[10]
  GI50: > 100 µM (inactive)
[11]
  GI50: > 100 µM (inactive)
[57]
  GI50: > 100 µM (inactive)
[12]
  GI50: > 100 µM (inactive)
[13]
  GI50: > 100 µM (inactive)
[14]
  GI50: > 100 µM (inactive)
[15]
  GI50: > 100 µM
[16]
  GI50: > 100 µM (inactive)
[17]
  GI50: > 100 µM (inactive)
[18]
  GI50: > 100 µM (inactive)
[20]
  GI50: > 100 µM (inactive)
[21]
  GI50: > 100 µM (inactive)
[22]
  GI50: > 100 µM (inactive)
[23]
  GI50: > 100 µM (inactive)
[24]
  GI50: > 100 µM (inactive)
[25]
  GI50: > 100 µM (inactive)
[26]
  GI50: > 100 µM (inactive)
[27]
  GI50: > 100 µM (inactive)
[58]
  GI50: > 100 µM (inactive)
[29]
  GI50: > 100 µM (inactive)
[30]
  GI50: > 100 µM (inactive)
[31]
  GI50: > 100 µM (inactive)
[32]
  GI50: > 100 µM (inactive)
[33]
  GI50: > 100 µM (inactive)
[34]
  GI50: > 100 µM (inactive)
[35]
  GI50: > 100 µM (inactive)
[36]
  GI50: > 100 µM (inactive)
[37]
  GI50: > 100 µM (inactive)
[38]
  GI50: > 100 µM (inactive)
[39]
  GI50: > 100 µM (inactive)
[40]
  GI50: > 100 µM (inactive)
[41]
  GI50: > 100 µM (inactive)
[42]
  GI50: > 100 µM (inactive)
[43]
  GI50: > 100 µM (inactive)
[45]
  GI50: > 100 µM (inactive)
[47]
  GI50: > 100 µM (inactive)
[48]
  GI50: > 100 µM (inactive)
[50]
  GI50: > 100 µM (inactive)
[53]
  GI50: > 100 µM (inactive)
[59]
  GI50: > 100 µM (inactive)
[54]
  GI50: > 100 µM (inactive)
[56]
  GI50: > 100 µM (inactive)

## COc1ccc2oc(-c3cc4cc(OC)ccc4o3)cc2c1
[2]
  GI50: > 100 µM (inactive)
[3]
  GI50: > 100 µM (inactive)
[4]
  GI50: > 100 µM (inactive)
[5]
  GI50: > 100 µM (inactive)
[7]
  GI50: > 100 µM (inactive)
[8]
  GI50: > 100 µM (inactive)
[9]
  GI50: > 100 µM (inactive)
[10]
  GI50: > 100 µM (inactive)
[11]
  GI50: > 100 µM (inactive)
[57]
  GI50: > 100 µM (inactive)
[13]
  GI50: > 100 µM (inactive)
[14]
  GI50: > 100 µM (inactive)
[15]
  GI50: > 100 µM
[17]
  GI50: > 100 µM (inactive)
[19]
  GI50: > 100 µM (inactive)
[20]
  GI50: > 100 µM (inactive)
[21]
  GI50: > 100 µM (inactive)
[23]
  GI50: > 100 µM (inactive)
[24]
  GI50: > 100 µM (inactive)
[25]
  GI50: > 100 µM (inactive)
[26]
  GI50: > 100 µM (inactive)
[27]
  GI50: > 100 µM (inactive)
[28]
  GI50: > 100 µM (inactive)
[58]
  GI50: > 100 µM (inactive)
[29]
  GI50: > 100 µM (inactive)
[30]
  GI50: > 100 µM (inactive)
[32]
  GI50: > 100 µM (inactive)
[33]
  GI50: > 100 µM (inactive)
[35]
  GI50: > 100 µM (inactive)
[36]
  GI50: > 100 µM (inactive)
[37]
  GI50: > 100 µM (inactive)
[39]
  GI50: > 100 µM (inactive)
[40]
  GI50: > 100 µM (inactive)
[41]
  GI50: > 100 µM (inactive)
[42]
  GI50: > 100 µM (inactive)
[43]
  GI50: > 100 µM (inactive)
[44]
  GI50: > 100 µM (inactive)
[45]
  GI50: > 100 µM (inactive)
[47]
  GI50: > 100 µM (inactive)
[48]
  GI50: > 100 µM (inactive)
[49]
  GI50: > 100 µM (inactive)
[50]
  GI50: > 100 µM (inactive)
[51]
  GI50: > 100 µM (inactive)
[52]
  GI50: > 100 µM (inactive)
[53]
  GI50: > 100 µM (inactive)
[59]
  GI50: > 100 µM (inactive)
[54]
  GI50: > 100 µM (inactive)
[55]
  GI50: > 100 µM (inactive)
[56]
  GI50: > 100 µM (inactive)

From ChEMBL document CHEMBL1201862, “PubChem BioAssay data set” (2004)
